PubChem BioAssay AID1996
Converted amounts (≈) assume the structure as drawn.

Conditions: buffer; pH 7.4; 200.0 µM

solubility kinetic	Structure (SMILES)
> 51.8 µg/mL	Cc1ccc(N2CC(C(=O)NCCN3CCOCC3)CC2=O)cc1C (stereo not given)
38.4 µg/mL (≈ 123 µM)	O=C1CCCN1CCCNC(=S)Nc1ccccc1Cl
35.5 µg/mL (≈ 134 µM)	CSc1ncccc1C(=O)NC1CCCCCC1
7.5 µg/mL (≈ 27.1 µM)	O=C(c1cc(-c2cccc(Cl)c2)on1)N1CCCC1
> 45.5 µg/mL	CCCNC(=O)N1CCC(c2nc3ccccc3s2)CC1
13.8 µg/mL (≈ 51.3 µM)	O=[N+]([O-])c1ccc(Cl)c(CN2CCCCCC2)c1
> 53.5 µg/mL	COc1ccc(OC)c(CNC(=O)C2CCN(S(C)(=O)=O)CC2)c1
36.2 µg/mL (≈ 112 µM)	O=C(CCC1CCCC1)NCCCNC(=O)CCC1CCCC1
> 43.9 µg/mL	O=C(NCCCN1CCCC1)Nc1ccccc1[N+](=O)[O-]
2.6 µg/mL (≈ 7.27 µM)	COc1ccc(NC(=S)N2CCN(c3ccccc3)CC2)c(OC)c1
45.6 µg/mL	CC1CCCC(C)N1CC(O)COCc1ccccc1F.Cl (stereo not given)
1.6 µg/mL (≈ 5.38 µM)	Cc1ccc2nc(-c3ccsc3)c(NC3CCCC3)n2c1
> 51.1 µg/mL	COc1ccc(S(=O)(=O)N2CCN(C(=O)CC(C)C)CC2)cc1
59.1 µg/mL (≈ 146 µM)	COc1ccc(C(=O)O)cc1S(=O)(=O)NC1CCN(Cc2ccccc2)CC1
25.3 µg/mL (≈ 77.3 µM)	COc1ccc2cc(C(C)C(=O)NC3CCC(O)CC3)ccc2c1 (stereo not given)
> 49.4 µg/mL	COC(=O)CCN(C(=O)c1ccc([N+](=O)[O-])cc1)c1ccccn1
> 42.9 µg/mL	Cc1ccccc1OCC(O)CN1CCCCC1.Cl (stereo not given)
> 40.3 µg/mL	O=C(CCC1CCCCC1)NCCN1CCOCC1
< 0.3 µg/mL	O=[N+]([O-])c1cccnc1Oc1ccc(C2SCCS2)cc1
9.6 µg/mL (≈ 29.2 µM)	O=C(Nc1cc2c3c(c1)CC(=O)N3CCC2)c1c(F)cccc1F
51.6 µg/mL (≈ 145 µM)	CC(=O)c1cccc(NC(=O)N2CCC(NC(=O)c3ccco3)CC2)c1
> 66.6 µg/mL	CCCCNC(=O)CCC(=O)N1CCN(C(c2ccccc2)c2ccccc2)CC1.Cl
18.5 µg/mL (≈ 54.7 µM)	O=C(OCc1cccc(F)c1)c1ccc2c(=O)n3c(nc2c1)CCC3
10.2 µg/mL (≈ 27.4 µM)	O=C(NC1CCCCC1)Oc1cc2oc(=O)sc2cc1Br
> 41.3 µg/mL	O=C(C1CC1)N1CCN(c2ccc([N+](=O)[O-])cc2)CC1

solubility kinetic	Structure (SMILES)
> 48.5 µg/mL	Cn1c(COc2ccc([N+](=O)[O-])cc2)nnc1SCC(N)=O
> 55.6 µg/mL	CC(Sc1nnc(Cc2ccccc2)o1)C(=O)NC1(C#N)CCCCC1 (stereo not given)
> 40.4 µg/mL	COCCCNC(=S)Nc1ccccc1[N+](=O)[O-]
> 45.4 µg/mL	COC(=O)c1ccc(S(=O)(=O)N2CCC(O)CC2)n1C
3.3 µg/mL (≈ 9.9 µM)	CC1CCCC(NC(=O)COC(=O)/C=C/c2ccc(F)cc2)C1C (stereo not given)
> 32.3 µg/mL	O=c1c2cccnc2nc2n1CCCCC2
> 61.3 µg/mL	Cc1ccc(NC(=O)CSc2ncccn2)cc1S(=O)(=O)N1CCOCC1
> 32.3 µg/mL	O=C(O)c1cccc2c3c([nH]c12)CCCC3
> 45.2 µg/mL	CCOC(=O)C1CCN(S(=O)(=O)c2cn(C)cn2)CC1
> 50 µg/mL	O=C(c1cc(=O)[nH]c2ccccc12)N1CCN(c2ccccc2)CC1
> 46.3 µg/mL	Cc1nc2ccccc2c2oc(C(=O)N3CCC(C)CC3)cc12
44.9 µg/mL (≈ 140 µM)	CCCC(=O)C1=C(N2CCCC2)CC(C)(C)C(C(=O)OC)C1=O (stereo not given)
33.9 µg/mL (≈ 117 µM)	CC1CCC(NS(=O)(=O)c2ccc(Cl)nc2)CC1 (stereo not given)
> 48.4 µg/mL	O=C(COc1ccccc1)Nc1cc2c3c(c1)CC(=O)N3CCC2
> 41.6 µg/mL	O=C(O)CC(CC(=O)N1CCOCC1)c1ccccc1 (stereo not given)
6.9 µg/mL (≈ 26.4 µM)	CC(NC(=O)c1ccc(F)cc1)C1CC2CCC1C2 (stereo not given)
> 37.2 µg/mL	NC(=O)CCS(=O)(=O)c1ccc(Cl)cc1
5.6 µg/mL (≈ 17.6 µM)	CCOc1ccccc1C(=O)NCC(=O)NCC1CCCCC1
> 36.5 µg/mL	CN1CCN(C(=O)c2cc3ccccc3[nH]2)CC1
> 56.9 µg/mL	CCNC(=O)c1cccc(NC(=O)C2CC(=O)N(CCc3ccccc3)C2)c1 (stereo not given)
29.5 µg/mL (≈ 85.4 µM)	Cc1ccc(-c2csc(NC(=O)CN3CC(C)OC(C)C3)n2)cc1 (stereo not given)
29.9 µg/mL (≈ 114 µM)	Cc1cccc(OCCCCCN2CCOCC2)c1
< 0.3 µg/mL	CC(C)Oc1ccc(C(=O)Nc2ccc([N+](=O)[O-])cc2)cc1
> 41.6 µg/mL	CC(=O)N1c2ccccc2-c2nc3ccccc3n2C1C (stereo not given)

More lines, now with the values behind:

Structure (SMILES)	solubility kinetic
Cc1ccc(C(=O)Nc2ccc(Nc3ccccc3)cc2)cc1Br	< 0.4 µg/mL
Br.Fc1ccccc1CNCc1ccc2c(c1)OCO2	> 51 µg/mL
CCOC(=O)c1[nH]cnc1C(=O)Nc1cccc(OC)c1	4.4 µg/mL (≈ 15.2 µM)
NCCc1c(Cc2ccccc2)[nH]c2ccccc12	34.5 µg/mL (≈ 138 µM)
CCCN(c1ccc(C)cc1)c1nc(=O)c2cccnc2s1	3 µg/mL (≈ 9.63 µM)
N#Cc1c(-c2ccccc2Cl)c2c([nH]c1=O)-c1ccccc1OC2	11.6 µg/mL (≈ 34.7 µM)
Clc1ccccc1C1NCc2ccccc2-n2cccc21 (stereo not given)	1.4 µg/mL (≈ 4.75 µM)
Cc1ccc(S(=O)(=O)NC(=O)c2cccc(N(C)C)c2)cc1	> 47.8 µg/mL
CC(C)n1c(N2CCCC2)nc2c1c(=O)[nH]c(=O)n2C	> 41.6 µg/mL
CCOc1cc(/C=C2\SC(=O)N(c3ccc(O)cc3)C2=O)ccc1O	4 µg/mL (≈ 11.2 µM)
CCOc1ccc(N=C2NC(=O)SC2CC(=O)OC)cc1 (stereo not given)	12.4 µg/mL (≈ 40.2 µM)
COc1ccc(-n2c(=S)[nH]c3ccccc3c2=S)cc1	1.4 µg/mL (≈ 4.66 µM)
Cc1cc2cc(C#N)c(SCC(=O)Nc3nonc3C)nc2cc1C	0.3 µg/mL (≈ 0.849 µM)
COc1cc(OC)cc(C(=O)NCCOC23CC4CC(CC(C4)C2)C3)c1	31.3 µg/mL (≈ 87.1 µM)
Cc1cccc(-n2c(/C=C/c3ccccn3)nc3ccccc3c2=O)c1	0.5 µg/mL (≈ 1.47 µM)
Cc1ccc(Cl)c(OCC(=O)Nc2cccnc2)c1	15.6 µg/mL (≈ 56.4 µM)
CCOC(=O)c1c(C)[nH]c(C(=O)COC(=O)c2ccco2)c1C	3.1 µg/mL (≈ 9.71 µM)
O=C(CCCc1nc2ccccc2s1)NCc1cccnc1	> 46.7 µg/mL
O=C(CCN1C(=O)c2ccccc2C1=O)NCc1cccc(Cl)c1	32.4 µg/mL (≈ 94.5 µM)
CN(Cc1c(F)cccc1Cl)C(=O)CNC(=O)c1cccs1	> 51.1 µg/mL
CCOc1ccc(Cn2c(=O)oc3ccccc32)cc1	< 0.6 µg/mL
COc1ccc2nc(NC(=O)c3c(C)noc3C)sc2c1	> 45.5 µg/mL
CCOC(=O)c1c(C)[nH]c(C(=O)NCCN2CCOCC2)c1C	> 48.5 µg/mL
Oc1c(I)cc(Cl)c2cccnc12	0.8 µg/mL (≈ 2.62 µM)

Structure (SMILES)	solubility kinetic
Cc1ccccc1NC(=O)c1ccno1	23.5 µg/mL (≈ 116 µM)
CC(OC(=O)CCc1nc2ccccc2c(=O)[nH]1)C(=O)Nc1cccc(C(F)(F)F)c1 (stereo not given)	> 65 µg/mL
CCCCCCCCC1CC(C(=O)Nc2ccccc2)C(=O)O1 (stereo not given)	< 0.7 µg/mL
CCCN(Cc1cc2cc(OC)ccc2[nH]c1=O)C(=O)c1ccco1	45.2 µg/mL (≈ 133 µM)
Cc1cc(C)c(C(=O)NCCCN2CCOCC2)c(C)c1	> 43.6 µg/mL
C=CC(C)C(C(=O)c1ccccc1)N(C)C (stereo not given)	12 µg/mL (≈ 55.2 µM)
Cc1onc(-c2c(Cl)cccc2Cl)c1/C(N)=N/OC(=O)N(C)C	> 53.6 µg/mL
CC1C(=O)Nc2ccccc2N1C(=O)c1ccc(Cl)c(Cl)c1 (stereo not given)	36.2 µg/mL (≈ 108 µM)
COc1ccc(OC)c(CC(=O)Nc2ccc3c(c2)CCC3)c1	4.1 µg/mL (≈ 13.2 µM)
CC1CN(C(=O)COC(=O)[C@@H](NC(=O)c2ccccc2Cl)C(C)C)CC(C)O1 (stereo not given in full)	58.5 µg/mL (≈ 142 µM)
COc1cc(C)c(S(=O)(=O)N2CCOCC2)c(C)c1C	> 44.9 µg/mL
Cc1ccc(CNc2nc(C)c(C(=O)N(C)C)s2)cc1	> 43.4 µg/mL
Cc1occc1C(=O)Nc1cccc(Cl)c1Cl	4.5 µg/mL (≈ 16.7 µM)
O=C(Cc1cccs1)NCc1ccc(Cl)cc1Cl	13.1 µg/mL (≈ 43.6 µM)
O=C(CN1C(=O)C2(OCCO2)c2cc(Br)ccc21)NO	46.7 µg/mL (≈ 136 µM)
COc1ccc(NC(=S)Nc2cccnc2)c(OC)c1	42.5 µg/mL (≈ 147 µM)
O=C(COC(=O)Cc1ccsc1)Nc1ccc(Cl)cc1F	47.7 µg/mL (≈ 146 µM)
CC1CCCCN1CC(O)c1c[nH]c2ccccc12 (stereo not given)	> 38.8 µg/mL
CCOc1ccc(C(c2c(O)nc(SC)[nH]c2=O)c2c(O)nc(SC)[nH]c2=O)cc1	> 67.3 µg/mL
COC(=O)[C@H](Cc1ccccc1)NC(=O)Nc1ccc(OC)cc1	47 µg/mL (≈ 143 µM)
COc1ccc(/C=N/OCC(=O)NCC(C)C)c(OC)c1	> 44.2 µg/mL
Cc1cc(=O)oc2cc(OCC(=O)N3c4ccccc4NC(=O)C3(C)C)ccc12	17.3 µg/mL (≈ 44.1 µM)
CCOc1ccc2oc(C(=O)OCC(=O)NC(=O)NC)c(C)c2c1	1.9 µg/mL (≈ 5.68 µM)
CCCC12CN3CCN(C1)CC(CCC)(C3)C2=O	30.9 µg/mL (≈ 123 µM)

Structure (SMILES)	solubility kinetic
CC(NC(=S)Nc1cccc(C(F)(F)F)c1)C(C)(C)C (stereo not given)	4.6 µg/mL (≈ 15.1 µM)
CSc1nc(SCCN(C)C)c2c3c(sc2n1)COC(C)(C)C3	37.4 µg/mL (≈ 101 µM)
COc1ccc(/C=C/C(=O)O)cc1S(=O)(=O)Nc1ccc2c(c1)OCO2	49.8 µg/mL (≈ 132 µM)
O=C(CNC(=O)c1ccc(Cl)cc1)c1ccc(Cl)cc1	9 µg/mL (≈ 29.2 µM)
CN(Cc1ccccc1F)c1ncnc2sccc12	33.7 µg/mL (≈ 123 µM)
COc1ccc(-c2csc(-c3cccs3)n2)c(OC)c1	0.8 µg/mL (≈ 2.64 µM)
Nc1cccc(CCc2ccncc2)c1	> 29.7 µg/mL
CC(C)Oc1ccc(Cn2c(=O)oc3ccccc32)cc1	0.7 µg/mL (≈ 2.47 µM)
O=C(COC(=O)c1cccnc1Cl)NCc1ccc(F)cc1	> 48.4 µg/mL
CN(C)c1ccc2c3c(ccc(N(C)C)c13)C(=O)OC2	36.6 µg/mL (≈ 135 µM)
Cc1cc2[nH]cnc2c([N+](=O)[O-])c1C	> 28.7 µg/mL
COCCN(C(=S)Nc1ccc(C)cc1)C(C)c1ccco1 (stereo not given)	3.4 µg/mL (≈ 10.7 µM)
CC(=O)c1cccc(NC(=O)c2cc(-c3ccco3)on2)c1	2.1 µg/mL (≈ 7.09 µM)
CCS(=O)(=O)Nc1cccc(-c2cn3c(n2)SCC3)c1	> 46.4 µg/mL
CC(C)CN(C(=O)CSc1nc(N)cc(N)n1)C1CCS(=O)(=O)C1 (stereo not given)	> 56 µg/mL
CSc1ccccc1C(=O)Nc1ccc2c(c1)OCO2	> 43.1 µg/mL
Cc1cnc(C(=O)NCCc2ccc(C(F)(F)F)cc2)cn1	11.9 µg/mL (≈ 38.5 µM)
COc1ccc(/C=C/C(=O)OCC(=O)N(C)CC(=O)Nc2ccc(C)cc2)c(OC)c1	4.4 µg/mL (≈ 10.3 µM)
O=C(O)/C=C\C(=O)NCc1cccnc1	> 30.9 µg/mL
Cc1cc(C)c(S(=O)(=O)c2cccc(C)c2C)c(=O)[nH]1	> 43.7 µg/mL
Cc1csc(NC(=O)CSc2nccn2Cc2ccco2)n1	47.7 µg/mL (≈ 143 µM)
CCOC(=O)Cc1csc(NC(=O)CCSc2ccccc2)n1	38.5 µg/mL (≈ 110 µM)
Cc1cccc(C)c1OCC(O)CNC(C)c1ccccc1.Cl (stereo not given)	> 50.4 µg/mL
